Assays:
Experiment in all cases: relative viability (nuclei count vs DMSO), 5 days (fraction); higher = more cells survive
[1] = compound: CC(C)(C)c1cc(NC(=O)Nc2ccc(-c3cn4c(n3)sc3cc(OCCN5CCOCC5)ccc34)cc2)no1 [Quizartinib]
Procedure, shortened: (§1)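 Lung cancer cell lines were seeded into 1536-well plates, kept overnight at 37 °C and pinned with five library-drug doses (not always all listed) spaced by √10. After 5 days, nuclei were Hoechst-stained, imaged at 4× and counted with MetaXpress. Viability is treated-well nuclei over vehicle-well nuclei, taken as a median across plates. Plates needed control CV below 25% and at least one doubling.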

[2] = compound: COCC[n+]1c2c(n(Cc3cnccn3)c1C)C(=O)c1ccccc1C2=O [YM155]
Procedure, shortened: as §1

[3] = compound: CC(C)(C)c1cc(NC(=O)Nc2ccc(-c3cn4c(n3)sc3cc(OCCN5CCOCC5)ccc34)cc2)no1 [Quizartinib] + Cc1cc(Nc2cc(N3CCN(C)CC3)nc(Sc3ccc(NC(=O)C4CC4)cc3)n2)n[nH]1 [Tozasertib] (partner 0.1 µM)
Procedure, shortened: (§2)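 Values are medians from duplicate plates. Each reflects relative viability, defined as the nuclei count of treated wells over that of vehicle wells. Lung cancer cell lines in 1536-well plates were pin-tool dosed one day after seeding with one drug alone or with a fixed anchor-drug dose plus five library-drug doses (not always all listed) in √10 steps, then fixed, stained and imaged at 4× after 5 days.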

[4] = compound: COCC[n+]1c2c(n(Cc3cnccn3)c1C)C(=O)c1ccccc1C2=O [YM155] + Nc1ncn([C@H]2C[C@H](O)[C@@H](CO)O2)c(=O)n1 [Decitabine] (partner 2 µM)
Procedure, shortened: as §2

[5] = compound: COCC[n+]1c2c(n(Cc3cnccn3)c1C)C(=O)c1ccccc1C2=O [YM155] + O=C(CCCCCCC(=O)Nc1ccccc1)NO [Vorinostat] (partner 1 µM)
Procedure, shortened: as §2

[6] = compound: COCC[n+]1c2c(n(Cc3cnccn3)c1C)C(=O)c1ccccc1C2=O [YM155] + Nc1nc2[nH]cc(CCc3ccc(C(=O)N[C@@H](CCC(=O)O)C(=O)O)cc3)c2c(=O)[nH]1 [Pemetrexed] (partner 0.2 µM)
Procedure, shortened: as §2

Question: NCI-H1648 was tested. Which relative viability ([1]; 0.003162 µM) did it give?
Answer: 0.756

Question: And the relative viability ([1]; 0.01 µM)?
Answer: 0.81

Question: What about the relative viability ([1]; 0.03162 µM) of the same cell line?
Answer: 0.886

Question: And the relative viability ([1]; 0.1 µM)?
Answer: 1.29

Question: And the relative viability ([2]; 0.002 µM)?
Answer: 0.748

Question: What about the relative viability ([2]; 0.006325 µM) of the same cell line?
Answer: 1.11

Question: And the relative viability ([2]; 0.02 µM)?
Answer: 0.829

Question: What about the relative viability ([2]; 0.06325 µM) of the same cell line?
Answer: 0.995

Question: What about the relative viability ([3]; first compound 0.01 µM) of the same cell line?
Answer: 0.38

Question: And the relative viability ([3]; first compound 0.03162 µM)?
Answer: 0.341

Question: And the relative viability ([3]; first compound 0.1 µM)?
Answer: 0.585

Question: And the relative viability ([4]; first compound 0.006325 µM)?
Answer: 0.593

Question: And the relative viability ([4]; first compound 0.02 µM)?
Answer: 0.41

Question: What about the relative viability ([4]; first compound 0.06325 µM) of the same cell line?
Answer: 0.599

Question: What about the relative viability ([5]; first compound 0.006325 µM) of the same cell line?
Answer: 0.386

Question: What about the relative viability ([5]; first compound 0.02 µM) of the same cell line?
Answer: 0.565

Question: And the relative viability ([5]; first compound 0.06325 µM)?
Answer: 0.301

Question: And the relative viability ([6]; first compound 0.006325 µM)?
Answer: 0.97

Question: And the relative viability ([6]; first compound 0.02 µM)?
Answer: 0.702

Question: What about the relative viability ([6]; first compound 0.06325 µM) of the same cell line?
Answer: 0.804

Source: the supplement of paper PMC10307832
